In PMC3349093, “Immobilized Horseradish Peroxidase on Discs of Polyvinyl Alcohol-Glutaraldehyde Coated with Polyaniline” (The Scientific World Journal, 2012) one finds Km data, which are given here for one molecule.

Each structure is given as a SMILES string.

For the assay, the system named is T1, soluble HRP (horseradish peroxidase).
T1 construct: gene PRXC1A; soluble (free) enzyme, gift of Dr. Elba Bon (UFRJ)
The experiment in a line: spectrophotometric, purpurogallin formation at […] nm, nonlinear hyperbolic fit. The settings on record: soluble enzyme; co-substrate H2O2 (0.25 mL of 5 mM); pyrogallol 4.0-48.7 mM; 28 °C; pH of kinetics not clearly stated (4.5 or 7.0). Type of assay: biochemical, Armoracia rusticana.

Take `Oc1cccc(O)c1O` [pyrogallol]: the Km (usually the concentration of substrate that gives half-maximal velocity) came out at 5.47 ± 0.71 mM.
